Results published in patent US20070092577A1, “Dietary calcium for reducing the production of reactive oxygen species” (University of Tennessee Research Foundation, priority 2005, published 2007).

Experiments:
Assay type in all cases: cell-based
CD14 = CD14 expression in human adipocytes; conditions: calcitriol 10 nmol/L, 48 hours; p=0.008
Excerpt: Cell culture: Human preadipocytes used in this study were supplied by Zen-Bio (Research Triangle, N.C.). Preadipocytes were inoculated in DMEM/Ham's F-10 medium (DMEM-F10) (1:1, vol/vol) containing 10% FBS, 15 mmol/L HEPES, and antibiotics at a density of 30,000 cells/cm^2. Confluent monolayers of preadipocytes were induced to differentiate with a standard differentiation medium consisting of DMEM-F 10 (1:1, vol/vol) medium supplemented with 15 mmol/L HEPES, 3% FBS, 33 μmol/L biotin, 17 μmol/L pantothenate, 100 nmol/L insulin, […] methylisobutylxanthine, 1 μmol/L dexamethasone, 1 μmol/L BRL49653, and antibiotics. […]
Cells were washed with fresh adipocyte medium, re-fed with medium containing the indicated treatments, and incubated at 37° C. in 5% CO2 for 48 hours before analysis. Cell viability was measured via trypan blue exclusion.
Adipocyte and muscle 18s, CD14, TNFα, MIP, M-CSF, IL-6 and MCP-1 were quantitatively measured using a Smart Cycler Real Time PCR System (Cepheid, Sunnyvale, Calif.) with a TaqMan 1000 Core Reagent Kit (Applied Biosystems, Branchburg, N.J.). […] Reactions of quantitative RT-PCR for standards and unknown samples were also performed according to the instructions of Smart Cycler System (Cepheid, Sunnyvale, Calif.) and TaqMan Real Time PCR Core Kit (Applied Biosystems, Branchburg, N.J.). […]

3T3-L1 adipocytes = assay: Mouse cytokine antibody array of culture medium
Procedure: RAW 264 macrophages and 3T3-L1 preadipocytes (American Type Culture Collection) were incubated at a density of 8000 cells/cm2 (10 cm2 dish) and grown in Dulbecco's modified Eagle's medium (DMEM) containing 10% FBS and antibiotics (adipocyte medium) at 37° C. in 5% CO2 in air. Confluent 3T3-L1 preadipocytes were induced to differentiate with a standard differentiation medium consisting of DMEM-F10 (1:1, vol/vol) medium supplemented with 1% FBS, 1 μM dexamethasone, IBMX (0.5 mM) and antibiotics (1% Penicillin-Streptomycin). Preadipocytes were maintained in this differentiation medium for 3 days and subsequently cultured in adipocyte medium. Cultures were re-fed every 2-3 days to allow 90% cells to reach fully differentiation for 3T3-L1 adipocytes or grow to a confluence for RAW 264 before conducting chemical treatment.
Human adipocytes (Zen-Bio, Inc.), 3T3-L1 adipocytes, RAW264 macrophages were obtained and co-cultured by using transwell inserts with 0.4 μm porous membranes (Corning) to separate adipocytes and macrophages. All data are expressed as mean±SEM. Data were evaluated for statistical significance by analysis of one-way or two-way variance (ANOVA; means with different letter differ, p<0.05).
A TansSignal™ mouse cytokine antibody array kit (Panomics, Fremont, Calif.) was used to detect cytokine protein released in culture medium according to the manufacture's instruction. […]

IL-8 = IL-8 expression in differentiated Zen-bio human adipocytes; conditions: 10 nmol/L, 48 h; p<0.001
Procedure: Human pre-adipocytes used in this study were supplied by Zen-Bio (Research Triangle, N.C.). […] The cells are isolated from the stromal vascular fraction of human subcutaneous adipose tissue and differentiated in vitro as follows: […] Preadipocytes were maintained in this differentiation medium for 3 days and subsequently cultured in adipocyte medium in which BRL49653 and MIX were omitted. Cultures were re-fed every 2-3 days till fully differentiated. Cells were incubated in serum free medium overnight before chemical treatment. Chemicals were freshly diluted in adipocyte medium before treatment. […] Cell viability was measured via trypan blue exclusion. Adipocyte and muscle 18s, TNFα, IL-6, IL-8, IL-15 and adiponectin were quantitatively measured using a smart cycler real-time PCR system (Cepheid, Sunnyvale, Calif.) with a TaqMan 1000 Core Reagent Kit (Applied Biosystems, Branchburg, N.J.). […] Reactions of quantitative RT-PCR for standards and unknown samples were also performed according to the instructions of Smart Cycler System (Cepheid, Sunnyvale, Calif.) and TaqMan Real Time PCR Core Kit (Applied Biosystems, Branchburg, N.J.). The mRNA quantitation for each sample was further normalized using the corresponding 18s quantitation.

## C=C1/C(=C\C=C2/CCC[C@]3(C)[C@@H]([C@H](C)CCCC(C)(C)O)CC[C@@H]23)C[C@@H](O)C[C@@H]1O [calcitriol, 1, 25-Dihydroxyvitamin D]
CD14
  increase of CD14 expression: 33%
3T3-L1 adipocytes; co-culture of 3T3-L1 adipocytes with RAW264 macrophages
  effect on inflammatory cytokine production: further stimulated inflammatory cytokine production
3T3-L1 adipocytes; differentiated 3T3-L1 adipocytes cultured alone
  effect on release of inflammatory cytokine proteins: up-regulated production of multiple inflammatory cytokine proteins
IL-8
  stimulation of IL-8 expression: 49%
